Results published in publication PMC11005685, “Identification of Potent siRNA Delivery Peptides Using Computer Modeling” (Advanced Science, 2024).

Legend:
mouse lung cells = experiment: scRNA-seq of lung after vector injection; format: in vivo
Protocol: (§1) Freshly tissues were washed in Hanks’ balanced salt solution, and cut into small pieces on ice, then digested with collagenase I and IV. After incubated for 30 min at 37°C with continuous shaking. The shredded tissues were filtered the 70 µm nylon mesh, and the obtained cells were centrifuged at 4°C. Red blood lysis buffer added in pelleted cells and shaked up and down 10 times, and then washed three times, finally resuspended in buffer (added 0.04% BSA in PBS). After removing dead cells in suspensions by flow cytometry, the process of single‐cell RNA‐seq following the standard instructions.
(§2) The generation of raw counts matrices was accomplished using CellRanger software, version 6.0.0, referencing the GRCm38 mouse genome. To attain a data set purified of doublets, the Scrublet software was employed. Subsequently, the filtered counts matrices underwent loading into the R software (version 4.0.3), facilitated by the Seurat package. Cells were meticulously curated to exclude those expressing either an excessive (>7000) or an insufficient (<200) number of genes, or presenting high mitochondrial counts (>20%). The raw data were then subjected to normalization using the LogNormalize method. The selection of the top 2000 highly variable genes was carried out with Seurat's FindVariableFeatures function, applying the vst method as the basis for further analysis. To harmonize the batch effects, the IntegrateData function in Seurat was employed. Dimensionality reduction was realized through Principal Component Analysis (PCA), with the leading 30 principal components (PCs) forming the basis for Uniform Manifold Approximation and Projection (UMAP) performance. Cluster identification ensued using Seurat's FindClusters function, setting the resolution at 0.5. Marker gene elucidation was achieved using the differential expression analysis through the Wilcox rank‐sum test, as implemented in the FindAllMarkers function (fold change≥2 and adjusted P≤0.05). Cell clusters underwent annotation against known cell type markers to ascertain their identity. Akin analyses focusing on subclusters of Kupffer cells and Neutrophils were conducted applying a similar methodological framework. Recognition of differentially expressed genes between two groups was facilitated by the Wilcox rank‐sum test via Seurat's FindMarkers function (fold change≥2 and adjusted P≤0.05). Data visualization was executed utilizing the ggplot2 package within the R software. Functional annotations and pathway enrichment analyses, considering the Gene Ontology (GO), were performed with the clusterProfiler package, deeming terms statistically significant at a P≤0.05.

mouse liver cells = experiment: scRNA-seq of liver after vector injection; format: in vivo
Protocol: as §1
as §2, with “Akin analyses focusing on subclusters of Kupffer cells and Neutrophils were conducted applying a similar methodological framework. Recognition of differentially expressed genes between two groups was facilitated by the Wilcox rank‐sum test via Seurat's FindMarkers function (fold change≥2 and adjusted P≤0.05). Data visualization was executed utilizing the ggplot2 package within the R software. Functional annotations and pathway enrichment analyses, considering the Gene Ontology (GO), were performed with the clusterProfiler package, deeming terms statistically significant at a P≤0.05.” left out

CCCCCCCC/C=C\CCCCCCCC(=O)OCC(C[N+](C)(C)C)OC(=O)CCCCCCC/C=C\CCCCCCCC (stereo not shown) [DOTAP]
alveolar macrophages distributed in the Sirpa+ cluster (mouse lung cells; lung scRNA-seq subclustering): 73% | differentially expressed genes in lung neutrophils (mouse lung cells; lung, vs untreated, total number of DEGs): 18 | differentially expressed genes in alveolar macrophages (mouse lung cells; lung, vs untreated, total number of genes): 12 | change in cellular composition of lung (mouse lung cells; vs untreated group): sharp increase in the number of neutrophils and alveolar macrophages and a decrease in the number of immune cells and endothelial cells | differentially expressed genes in Kupffer cells (mouse liver cells; liver, vs untreated (NS), total number of genes): 7 | differentially expressed genes in liver neutrophils (mouse liver cells; liver, vs untreated, total number of DEGs): 45 | change in cellular composition of liver (mouse liver cells; vs normal control (saline-injected)): sharp increase in the number of neutrophils and a decrease in the number of immune cells
